Assay results reported in article PMC3319116 (Journal of Medicinal Chemistry, 2012).

target: T1, CB1 (Homo sapiens, UniProt P21554); test: Radioligand displacement of [3H]CP55940 at CB1; format: binding; conditions: Ki vs CP55940
T1 sequence (P21554 whole entry): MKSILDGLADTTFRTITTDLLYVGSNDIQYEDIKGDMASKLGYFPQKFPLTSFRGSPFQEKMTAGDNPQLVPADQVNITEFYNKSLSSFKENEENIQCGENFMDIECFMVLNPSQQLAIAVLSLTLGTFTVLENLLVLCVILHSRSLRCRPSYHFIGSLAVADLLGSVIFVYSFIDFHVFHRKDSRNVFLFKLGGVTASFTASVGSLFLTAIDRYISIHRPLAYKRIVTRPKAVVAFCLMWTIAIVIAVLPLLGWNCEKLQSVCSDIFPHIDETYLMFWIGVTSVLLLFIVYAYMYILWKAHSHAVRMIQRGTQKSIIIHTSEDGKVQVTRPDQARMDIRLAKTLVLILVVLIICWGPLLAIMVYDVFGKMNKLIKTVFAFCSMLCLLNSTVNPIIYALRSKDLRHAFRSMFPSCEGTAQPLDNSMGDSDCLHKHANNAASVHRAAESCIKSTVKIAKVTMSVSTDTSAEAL

SMILES	selectivity for CB1 versus CB2
Cc1c(C(=O)N[C@H]2CCCN(S(C)(=O)=O)C2)nn(-c2ccc(Cl)cc2Cl)c1-c1ccc(Cl)cc1 [Compound 19d, 5-(4-Chlorophenyl)-1-(2,4-dichlorophenyl)-N-[(3S)-1-methanesulfonylpiperidin-3-yl]-4-methyl-1H-pyrazole-3-carboxamide]	over 100 fold
Cc1c(C(=O)N[C@@H]2CCCN(S(C)(=O)=O)C2)nn(-c2ccc(Cl)cc2Cl)c1-c1ccc(Cl)cc1 [Compound 20d, 5-(4-Chlorophenyl)-1-(2,4-dichlorophenyl)-N-[(3R)-1-methanesulfonylpiperidin-3-yl]-4-methyl-1H-pyrazole-3-carboxamide]	over 100 fold

test system: not listed separately; test: In vivo evaluation of brain penetration; set-up: species or system rats; conditions: Oral, 10 mg/kg, 60 min, unperfused brain

Brain Conc.	SMILES
below the lower limit of quantitation	Cc1c(C(=O)N2CCC(NC(=O)NC(C)(C)C)(c3ccccc3)CC2)nn(-c2ccc(Cl)cc2Cl)c1-c1ccc(Cl)cc1 [Compound 17a, 3-tert-Butyl-1-(1-{[5-(4-chlorophenyl)-1-(2,4-dichlorophenyl)-4-methyl-1H-pyrazol-3-yl]carbonyl}-4-phenylpiperidin-4-yl)urea]

same assay, conditions: oral or ip, 10 mg/kg

bioavailable with oral or intra-peritoneal dosing	SMILES
bioavailable	Cc1c(C(=O)N2CCC(NC(=O)NC(C)(C)C)(c3ccccc3)CC2)nn(-c2ccc(Cl)cc2Cl)c1-c1ccc(Cl)cc1 [Compound 17a, 3-tert-Butyl-1-(1-{[5-(4-chlorophenyl)-1-(2,4-dichlorophenyl)-4-methyl-1H-pyrazol-3-yl]carbonyl}-4-phenylpiperidin-4-yl)urea]
bioavailable	Cc1c(C(=O)NC2CCN(C(=O)OC(C)(C)C)CC2)nn(-c2ccc(Cl)cc2Cl)c1-c1ccc(Cl)cc1 [Compound 18a, tert-Butyl-4-[5-(4-chlorophenyl)-1-(2,4-dichlorophenyl)-4-methyl-1H-pyrazole-3-amido]piperidine-1-carboxylate]
bioavailable	Cc1c(C(=O)NC2CCN(C(=O)NC(C)(C)C)CC2)nn(-c2ccc(Cl)cc2Cl)c1-c1ccc(Cl)cc1 [Compound 18f, 1-N-tert-Butyl-4-C-5-(4-chlorophenyl)-1-(2,4-dichlorophenyl)-4-methyl-1H-pyrazole-3-piperidine-1,4-diamido]

target: T1, CB1; test: CB1 Gαq16-coupled intracellular calcium mobilization assay in CHO-K1 cells; format: cell-based; conditions: not given

SMILES	Kb [nM]
Cc1c(C(=O)N2CCC(C(=O)O)(c3ccccc3)CC2)nn(-c2ccc(Cl)cc2Cl)c1-c1ccc(Cl)cc1 [Compound 10, 1-{[5-(4-Chlorophenyl)-1-(2,4-dichlorophenyl)-4-methyl-1H-pyrazol-3-yl]carbonyl}-4-phenylpiperidine-4-carboxylic acid]	1170
Cc1c(C(=O)N2CCC(NC(=O)Nc3ccc(N(C)C)cc3)(c3ccccc3)CC2)nn(-c2ccc(Cl)cc2Cl)c1-c1ccc(Cl)cc1 [Compound 17e, 3-(1-{[5-(4-Chlorophenyl)-1-(2,4-dichlorophenyl)-4-methyl-1H-pyrazol-3-yl]carbonyl}-4-phenylpiperidin-4-yl)-1-[4-(dimethylamino)phenyl]urea]	264
Cc1c(C(=O)NC2CCNCC2)nn(-c2ccc(Cl)cc2Cl)c1-c1ccc(Cl)cc1 [Compound 18b, 5-(4-Chlorophenyl)-1-(2,4-dichlorophenyl)-4-methyl-N-(piperidin-4-yl)-1H-pyrazole-3-carboxamide]	5110
CC(=O)N1CCC(NC(=O)c2nn(-c3ccc(Cl)cc3Cl)c(-c3ccc(Cl)cc3)c2C)CC1 [Compound 18c, N-(1-Acetylpiperidin-4-yl)-5-(4-chlorophenyl)-1-(2,4-dichlorophenyl)-4-methyl-1H-pyrazole-3-carboxamide]	195
Cc1c(C(=O)NC2CCN(S(C)(=O)=O)CC2)nn(-c2ccc(Cl)cc2Cl)c1-c1ccc(Cl)cc1 [Compound 18d, 5-(4-Chlorophenyl)-1-(2,4-dichlorophenyl)-N-(1-methanesulfonylpiperidin-4-yl)-4-methyl-1H-pyrazole-3-carboxamide]	269
Cc1c(C(=O)NC2CCN(S(N)(=O)=O)CC2)nn(-c2ccc(Cl)cc2Cl)c1-c1ccc(Cl)cc1 [Compound 18e, 5-(4-Chlorophenyl)-1-(2,4-dichlorophenyl)-4-methyl-N-(1-sulfamoylpiperidin-4-yl)-1H-pyrazole-3-carboxamide]	592
CCOC(=O)N1CCC(NC(=O)c2nn(-c3ccc(Cl)cc3Cl)c(-c3ccc(Cl)cc3)c2C)CC1 [Compound 18l, Ethyl-4-[5-(4-chlorophenyl)-1-(2,4-dichlorophenyl)-4-methyl-1H-pyrazole-3-amido]piperidine-1-carboxylate]	3
Cc1c(C(=O)N[C@H]2CCCN(S(C)(=O)=O)C2)nn(-c2ccc(Cl)cc2Cl)c1-c1ccc(Cl)cc1 [Compound 19d, 5-(4-Chlorophenyl)-1-(2,4-dichlorophenyl)-N-[(3S)-1-methanesulfonylpiperidin-3-yl]-4-methyl-1H-pyrazole-3-carboxamide]	62
Cc1c(C(=O)N[C@@H]2CCCN(S(C)(=O)=O)C2)nn(-c2ccc(Cl)cc2Cl)c1-c1ccc(Cl)cc1 [Compound 20d, 5-(4-Chlorophenyl)-1-(2,4-dichlorophenyl)-N-[(3R)-1-methanesulfonylpiperidin-3-yl]-4-methyl-1H-pyrazole-3-carboxamide]	7

The remaining lines, values ahead:

Kb [nM]	SMILES
842	Cc1c(C(=O)N[C@H]2CCCN(C(=O)OC(C)(C)C)C2)nn(-c2ccc(Cl)cc2Cl)c1-c1ccc(Cl)cc1 [Compound 19a, tert-Butyl-(3S)-3-[5-(4-chlorophenyl)-1-(2,4-dichlorophenyl)-4-methyl-1H-pyrazole-3-amido]piperidine-1-carboxylate]
1880	Cc1c(C(=O)N[C@H]2CCCNC2)nn(-c2ccc(Cl)cc2Cl)c1-c1ccc(Cl)cc1 [Compound 19b, 5-(4-Chlorophenyl)-1-(2,4-dichlorophenyl)-4-methyl-N-[(3S)-piperidin-3-yl]-1H-pyrazole-3-carboxamide]
280	CCNC(=O)N1CCC[C@H](NC(=O)c2nn(-c3ccc(Cl)cc3Cl)c(-c3ccc(Cl)cc3)c2C)C1 [Compound 19e, (3S)-3-C-5-(4-Chlorophenyl)-1-(2,4-dichlorophenyl)-4-methyl-1H-pyrazole-3-1-N-ethylpiperidine-1,3-diamido]
265	Cc1c(C(=O)N[C@H]2CCCN(C(=O)NC(C)C)C2)nn(-c2ccc(Cl)cc2Cl)c1-c1ccc(Cl)cc1 [Compound 19f, (3S)-3-C-5-(4-Chlorophenyl)-1-(2,4-dichlorophenyl)-4-methyl-1H-pyrazole-3-1-N-(propan-2-yl)piperidine-1,3-diamido]
230	CCCCNC(=O)N1CCC[C@H](NC(=O)c2nn(-c3ccc(Cl)cc3Cl)c(-c3ccc(Cl)cc3)c2C)C1 [Compound 19h, (3S)-1-N-Butyl-3-C-5-(4-chlorophenyl)-1-(2,4-dichlorophenyl)-4-methyl-1H-pyrazole-3-piperidine-1,3-diamido]
206	Cc1c(C(=O)N[C@H]2CCCN(C(=O)NC(C)(C)C)C2)nn(-c2ccc(Cl)cc2Cl)c1-c1ccc(Cl)cc1 [Compound 19i, (3S)-1-N-tert-Butyl-3-C-5-(4-chlorophenyl)-1-(2,4-dichlorophenyl)-4-methyl-1H-pyrazole-3-piperidine-1,3-diamido]
1170	Cc1c(C(=O)N[C@@H]2CCCNC2)nn(-c2ccc(Cl)cc2Cl)c1-c1ccc(Cl)cc1 [Compound 20b, 5-(4-Chlorophenyl)-1-(2,4-dichlorophenyl)-4-methyl-N-[(3R)-piperidin-3-yl]-1H-pyrazole-3-carboxamide]
530	CC(=O)N1CCC[C@@H](NC(=O)c2nn(-c3ccc(Cl)cc3Cl)c(-c3ccc(Cl)cc3)c2C)C1 [Compound 20c, N-[(3R)-1-Acetylpiperidin-3-yl]-5-(4-chlorophenyl)-1-(2,4-dichlorophenyl)-4-methyl-1H-pyrazole-3-carboxamide]
171	CCNC(=O)N1CCC[C@@H](NC(=O)c2nn(-c3ccc(Cl)cc3Cl)c(-c3ccc(Cl)cc3)c2C)C1 [Compound 20e, (3R)-3-C-5-(4-Chlorophenyl)-1-(2,4-dichlorophenyl)-4-methyl-1H-pyrazole-3-1-N-ethylpiperidine-1,3-diamido]
118	CCCCNC(=O)N1CCC[C@@H](NC(=O)c2nn(-c3ccc(Cl)cc3Cl)c(-c3ccc(Cl)cc3)c2C)C1 [Compound 20h, (3R)-1-N-Butyl-3-C-5-(4-chlorophenyl)-1-(2,4-dichlorophenyl)-4-methyl-1H-pyrazole-3-piperidine-1,3-diamido]
268	Cc1c(C(=O)N[C@@H]2CCCN(C(=O)NC(C)(C)C)C2)nn(-c2ccc(Cl)cc2Cl)c1-c1ccc(Cl)cc1 [Compound 20i, (3R)-1-N-tert-Butyl-3-C-5-(4-chlorophenyl)-1-(2,4-dichlorophenyl)-4-methyl-1H-pyrazole-3-piperidine-1,3-diamido]
135	CCNC(=O)NCC1CCC(CNC(=O)c2nn(-c3ccc(Cl)cc3Cl)c(-c3ccc(Cl)cc3)c2C)CC1 (stereo not drawn) [Compound 21a, 5-(4-Chlorophenyl)-1-(2,4-dichlorophenyl)-N-[(4-{[(ethylcarbamoyl)amino]methyl}cyclohexyl)methyl]-4-methyl-1H-pyrazole-3-carboxamide]
351	Cc1c(C(=O)NCC2CCC(CNC(=O)NC(C)C)CC2)nn(-c2ccc(Cl)cc2Cl)c1-c1ccc(Cl)cc1 (stereo not drawn) [Compound 21b, 5-(4-Chlorophenyl)-1-(2,4-dichlorophenyl)-4-methyl-N-{[4-({[(propan-2-yl)carbamoyl]amino}methyl)cyclohexyl]methyl}-1H-pyrazole-3-carboxamide]
486	CCCNC(=O)NCC1CCC(CNC(=O)c2nn(-c3ccc(Cl)cc3Cl)c(-c3ccc(Cl)cc3)c2C)CC1 (stereo not drawn) [Compound 21c, 5-(4-Chlorophenyl)-1-(2,4-dichlorophenyl)-4-methyl-N-[(4-{[(propylcarbamoyl)amino]methyl}cyclohexyl)methyl]-1H-pyrazole-3-carboxamide]
274	CCCCNC(=O)NCC1CCC(CNC(=O)c2nn(-c3ccc(Cl)cc3Cl)c(-c3ccc(Cl)cc3)c2C)CC1 (stereo not drawn) [Compound 21d, N-[(4-{[(Butylcarbamoyl)amino]methyl}cyclohexyl)methyl]-5-(4-chlorophenyl)-1-(2,4-dichlorophenyl)-4-methyl-1H-pyrazole-3-carboxamide]
150	Cc1c(C(=O)NCC2CCC(CNC(=O)NC(C)(C)C)CC2)nn(-c2ccc(Cl)cc2Cl)c1-c1ccc(Cl)cc1 (stereo not drawn) [Compound 21e, N-[(4-{[(tert-Butylcarbamoyl)amino]methyl}cyclohexyl)methyl]-5-(4-chlorophenyl)-1-(2,4-dichlorophenyl)-4-methyl-1H-pyrazole-3-carboxamide]

same assay, conditions: Ke CB1, fold more potent than 7

SMILES	potency relative to sulfonamide 7 [fold]
Cc1c(C(=O)N[C@@H]2CCCN(S(C)(=O)=O)C2)nn(-c2ccc(Cl)cc2Cl)c1-c1ccc(Cl)cc1 [Compound 20d, 5-(4-Chlorophenyl)-1-(2,4-dichlorophenyl)-N-[(3R)-1-methanesulfonylpiperidin-3-yl]-4-methyl-1H-pyrazole-3-carboxamide]	16

same assay, conditions: apparent dissociation affinity constant; rightward shift of CP55940 curve

Ke (nM) CB1 [nM]	SMILES
2.09	Cc1c(C(=O)N2CCC(NC(=O)NCc3ccccc3)(c3ccccc3)CC2)nn(-c2ccc(Cl)cc2Cl)c1-c1ccc(Cl)cc1 [Compound 17b, 1-Benzyl-3-(1-{[5-(4-chlorophenyl)-1-(2,4-dichlorophenyl)-4-methyl-1H-pyrazol-3-yl]carbonyl}-4-phenylpiperidin-4-yl)urea]
